# Test results taken from PubChem BioAssay (NCI).
#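 Where inhibition never reached the appropriate level, the endpoint shown equals the highest concentration tested. Otherwise, values were interpolated linearly from a five-concentration, 48-hour dose response in 96-well plates. At the GI50, growth is halved. TGI: total growth inhibition.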
# Key:
# Assay in all cases: DTP human tumour cell line panel, 48 h
# [1] = system: SN12C renal
# [2] = system: M14 melanoma
# [3] = system: NCI-H23 lung
# [4] = system: HL-60(TB) leukemia
# [5] = system: SF-268 CNS
# [6] = system: HT29 colon
# [7] = system: COLO 205 colon
# [8] = system: U251 CNS
# [9] = system: EKVX NSCLC
# [10] = system: A498 renal
# [11] = system: HOP-62 NSCLC
# [12] = system: SK-OV-3 ovarian
# [13] = system: SR leukemia
# [14] = system: DU-145 prostate
# [15] = system: NCI-H460 lung
# [16] = system: MOLT-4 leukemia
# [17] = system: RPMI-8226 leukemia
# [18] = system: K-562 leukemia
# [19] = system: HOP-92 NSCLC
# [20] = system: CAKI-1 renal
# [21] = system: LOX IMVI melanoma
# [22] = system: HS 578T breast
# [23] = system: NCI/ADR-RES ovarian
# [24] = system: OVCAR-8 ovarian
# [25] = system: SNB-75 CNS
# [26] = system: MDA-MB-231 breast
# [27] = system: OVCAR-4 ovarian
# [28] = system: NCI-H226 lung
# [29] = system: UACC-62 melanoma
# [30] = system: OVCAR-5 ovarian
# [31] = system: T-47D breast
# [32] = system: NCI-H522 lung
# [33] = system: ACHN renal
# [34] = system: SK-MEL-28 melanoma
# [35] = system: HCT-116 colon
# [36] = system: CCRF-CEM leukemia
# [37] = system: A549 NSCLC
# [38] = system: PC-3 prostate
# [39] = system: OVCAR-3 ovarian
# [40] = system: KM12 colon
# [41] = system: MDA-MB-435
# [42] = system: SW-620 colon
# [43] = system: MALME-3M melanoma
# [44] = system: IGROV1 ovarian
# [45] = system: 786-0 renal
# [46] = system: RXF 393 renal
# [47] = system: SK-MEL-2 melanoma
# [48] = system: HCC-2998 colon
# [49] = system: UACC-257 melanoma
# [50] = system: SK-MEL-5 melanoma
# [51] = system: UO-31 renal
# [52] = system: SF-295 CNS
# [53] = system: MCF7 breast
# [54] = system: SF-539 CNS
# [55] = system: HCT-15 colon
# [56] = system: TK-10 renal
# [57] = system: SNB-19 CNS
# [58] = system: BT-549 breast
smiles,measurement,setting,value
ClC1=C(Cl)C(Cl)=C(Cl)C1=C/C=C/c1ccccc1,GI50,[1],0.407 µM
same,TGI,[1],2.15 µM
same,GI50,[2],0.279 µM
same,TGI,[2],0.882 µM
same,GI50,[3],0.257 µM
same,TGI,[3],1.14 µM
same,GI50,[4],0.329 µM
same,GI50,[5],0.261 µM
same,TGI,[5],1.51 µM
same,GI50,[6],0.319 µM
same,TGI,[6],1.16 µM
same,GI50,[7],0.226 µM
same,TGI,[7],0.686 µM
same,GI50,[8],0.346 µM
same,TGI,[8],1.37 µM
same,GI50,[9],0.215 µM
same,TGI,[9],1.23 µM
same,GI50,[10],0.59 µM
same,TGI,[10],1.22 µM
same,GI50,[11],1.2 µM
same,TGI,[11],4.17 µM
same,GI50,[12],2.44 µM
same,TGI,[12],> 27.5 µM
same,GI50,[13],0.138 µM
same,GI50,[14],0.42 µM
same,TGI,[14],1.32 µM
same,GI50,[15],0.326 µM
same,TGI,[15],2.3 µM
same,GI50,[16],0.335 µM
same,GI50,[17],< 0.0374 µM
same,TGI,[17],0.275 µM
same,GI50,[18],0.439 µM
same,TGI,[18],> 100 µM
same,GI50,[19],0.165 µM
same,TGI,[19],0.491 µM
same,GI50,[20],0.198 µM
same,TGI,[20],0.561 µM
same,GI50,[21],0.184 µM
same,TGI,[21],0.407 µM
same,GI50,[22],0.208 µM
same,TGI,[22],0.685 µM
same,GI50,[23],0.393 µM
same,GI50,[24],0.266 µM
same,TGI,[24],1.92 µM
same,GI50,[25],0.251 µM
same,TGI,[25],1.85 µM
same,GI50,[26],0.344 µM
same,TGI,[26],> 100 µM
same,GI50,[27],0.337 µM
same,TGI,[27],19.8 µM
same,GI50,[28],0.236 µM
same,TGI,[28],0.653 µM
same,GI50,[29],0.191 µM
same,TGI,[29],0.467 µM
same,GI50,[30],0.338 µM
same,TGI,[30],0.968 µM
same,GI50,[31],0.153 µM
same,TGI,[31],0.631 µM
same,GI50,[32],0.216 µM
same,TGI,[32],0.562 µM
same,GI50,[33],0.318 µM
same,TGI,[33],0.855 µM
same,GI50,[34],0.249 µM
same,TGI,[34],0.597 µM
same,GI50,[35],0.213 µM
same,TGI,[35],0.457 µM
same,GI50,[36],0.306 µM
same,GI50,[37],0.339 µM
same,TGI,[37],1.24 µM
same,GI50,[38],0.276 µM
same,TGI,[38],2.65 µM
same,GI50,[39],0.239 µM
same,TGI,[39],0.532 µM
same,GI50,[40],0.272 µM
same,TGI,[40],0.684 µM
same,GI50,[41],0.302 µM
same,TGI,[41],0.977 µM
same,GI50,[42],0.299 µM
same,TGI,[42],0.869 µM
same,GI50,[43],0.167 µM
same,TGI,[43],0.499 µM
same,TGI,[44],0.0455 µM
same,GI50,[45],0.444 µM
same,TGI,[45],2.05 µM
same,GI50,[46],0.186 µM
same,TGI,[46],0.36 µM
same,GI50,[47],0.256 µM
same,TGI,[47],0.678 µM
same,GI50,[48],0.229 µM
same,TGI,[48],0.464 µM
same,GI50,[49],0.184 µM
same,TGI,[49],0.41 µM
same,GI50,[50],0.196 µM
same,TGI,[50],0.563 µM
same,GI50,[51],0.201 µM
same,TGI,[51],0.756 µM
same,GI50,[52],0.311 µM
same,TGI,[52],1.02 µM
same,GI50,[53],0.139 µM
same,TGI,[53],0.664 µM
same,GI50,[54],0.206 µM
same,TGI,[54],0.699 µM
same,GI50,[55],0.179 µM
same,TGI,[55],0.391 µM
same,GI50,[56],0.562 µM
same,TGI,[56],2.04 µM
same,GI50,[57],0.59 µM
same,TGI,[57],2.44 µM
NC(=NCCCOc1ccc(Cl)cc1)Nc1ccc(Cl)cc1,GI50,[1],2.75 µM
same,TGI,[1],10.9 µM
same,GI50,[2],1.67 µM
same,TGI,[2],3.39 µM
same,GI50,[58],3.35 µM
same,TGI,[58],10 µM
same,GI50,[3],2.31 µM
same,TGI,[3],7.43 µM
same,GI50,[4],1.88 µM
same,TGI,[4],4.58 µM
same,GI50,[5],3.1 µM
same,TGI,[5],13 µM
same,GI50,[6],2.12 µM
same,TGI,[6],5.95 µM
same,GI50,[7],1.17 µM
same,TGI,[7],2.75 µM
same,GI50,[8],2.65 µM
same,TGI,[8],8.36 µM
same,GI50,[9],3.87 µM
same,TGI,[9],13.3 µM
same,GI50,[10],1.92 µM
same,TGI,[10],5.43 µM
same,GI50,[11],2.53 µM
same,TGI,[11],8.01 µM
same,GI50,[12],3.31 µM
same,TGI,[12],12.3 µM
same,GI50,[13],2.17 µM
same,TGI,[13],5.9 µM
same,GI50,[14],2.67 µM
same,TGI,[14],7.73 µM
same,GI50,[15],2.7 µM
same,TGI,[15],7.94 µM
same,GI50,[16],1.66 µM
same,TGI,[16],4.66 µM
same,GI50,[17],2.1 µM
same,TGI,[17],4.66 µM
same,GI50,[18],1.85 µM
same,TGI,[18],4.32 µM
same,GI50,[19],1.51 µM
same,TGI,[19],5.53 µM
same,GI50,[20],2.77 µM
same,TGI,[20],9.11 µM
same,GI50,[21],1.6 µM
same,TGI,[21],2.98 µM
same,GI50,[22],3.39 µM
same,TGI,[22],14 µM
same,GI50,[23],3.03 µM
same,TGI,[23],9.92 µM
same,GI50,[24],3.16 µM
same,TGI,[24],12.1 µM
same,GI50,[25],0.725 µM
same,TGI,[25],11.8 µM
same,GI50,[26],1.97 µM
same,TGI,[26],4.56 µM
same,GI50,[27],2.3 µM
same,TGI,[27],7.9 µM
same,GI50,[28],3.97 µM
same,TGI,[28],19.6 µM
same,GI50,[29],1.88 µM
same,TGI,[29],3.94 µM
same,GI50,[30],2.02 µM
same,TGI,[30],6.56 µM
same,GI50,[32],2.05 µM
same,TGI,[32],4.8 µM
same,GI50,[33],2.01 µM
same,TGI,[33],5.31 µM
same,GI50,[34],1.89 µM
same,TGI,[34],3.64 µM
same,GI50,[35],1.61 µM
same,TGI,[35],3.24 µM
same,GI50,[36],2.11 µM
same,TGI,[36],6.74 µM
same,GI50,[37],3.48 µM
same,TGI,[37],12.7 µM
same,GI50,[38],2.1 µM
same,TGI,[38],6.29 µM
same,GI50,[39],2.84 µM
same,TGI,[39],8.09 µM
same,GI50,[41],1.76 µM
same,TGI,[41],3.37 µM
same,GI50,[42],1.94 µM
same,TGI,[42],5.59 µM
same,GI50,[43],1.95 µM
same,TGI,[43],4.14 µM
same,GI50,[44],2.02 µM
same,TGI,[44],5.83 µM
same,GI50,[45],2.15 µM
same,TGI,[45],6.67 µM
same,GI50,[46],1.86 µM
same,TGI,[46],6.97 µM
same,GI50,[47],2.32 µM
same,TGI,[47],4.72 µM
same,GI50,[48],1.5 µM
same,TGI,[48],3.12 µM
same,GI50,[49],1.91 µM
same,TGI,[49],3.84 µM
same,GI50,[50],1.74 µM
same,TGI,[50],3.16 µM
same,GI50,[51],2.17 µM
same,TGI,[51],8.1 µM
same,GI50,[52],2.42 µM
same,TGI,[52],6.9 µM
same,GI50,[53],2.2 µM
same,TGI,[53],7.35 µM
same,GI50,[54],1.83 µM
same,TGI,[54],3.72 µM
same,GI50,[55],2.98 µM
same,TGI,[55],9.29 µM
same,GI50,[56],1.75 µM
same,TGI,[56],3.89 µM
same,GI50,[57],2.46 µM
same,TGI,[57],13.6 µM
